Results reported in patent publication US20140044655A1, “NOVEL ACTIVATOR PEPTIDES FOR SYNTHESIZING EXTRACELLULAR MATRIX PROTEINS, AND COSMETIC COMPOSITIONS INCLUDING SAME” (ISP INVESTMENTS INC., priority 2011, published 2014).
Where no end group is shown, it is not given here.

How the values were obtained:
Format in all cases: cell-based
pro-collagen [1] = assay: Specific labeling of pro-collagen in human fibroblast cultures (epifluorescence); details: human dermal fibroblasts; peptide 0.5%, 1% and/or 3% (stock solution 40 mg/kg); 24, 48 and/or 72 hours; vs control
Procedure: (§1) The objective of this study is to determine the influence of the peptides SEQ ID NO: 4 and NO: 5 and the peptide SEQ ID NO: 4 on the expression of the following extracellular matrix proteins: collagen I, collagen III, pro-collagen, fibronectin and hyaluronic acid in human fibroblasts. For this, specific labelings were performed on normal human fibroblast cultures obtained from the dermis.
(§2) Human fibroblasts in culture are treated with the peptide SEQ ID NO: 5 or the peptide SEQ ID NO: 4 at a final concentration of 0.5%, 1% and/or 3% (based on a stock solution at 40 mg/kg), for 24, 48 and/or 72 hours. The cells are then washed, fixed with cold methanol for 4 minutes at 4° C. (for the collagen I, collagen III and hyaluronic acid labelings) or with formaldehyde at 3.7% for 10 minutes at room temperature (for the pro-collagen and fibronectin labelings). The cells are incubated in the presence of a specific rabbit collagen I polyclonal antibody (Rockland, Ref: 600-401-103-0.5), a specific rabbit collagen III polyclonal antibody (Rockland, Ref: 600-401-105-0.5), a specific rat pro-collagen polyclonal antibody (Millipore, Ref: MAB1912), a specific rabbit fibronectin polyclonal antibody (Sigma, Ref: F-3648), then an anti-rabbit secondary antibody coupled with a fluorochrome (Invitrogen, Ref: A21206) or anti-rat coupled with a fluorochrome (Invitrogen, A11006). […]

fibronectin = assay: Specific labeling of fibronectin in human fibroblast cultures (epifluorescence); details: human dermal fibroblasts; peptide 0.5%, 1% and/or 3% (stock solution 40 mg/kg); 24, 48 and/or 72 hours; vs control
Procedure: as §1, §2

collagen III [2] = assay: Specific labeling of collagen III in human fibroblast cultures (epifluorescence); details: human dermal fibroblasts; peptide 0.5%, 1% and/or 3% (stock solution 40 mg/kg); 24, 48 and/or 72 hours; vs control
Procedure: as §1, §2

collagen I [3] = assay: Specific labeling of collagen I in human fibroblast cultures (epifluorescence); details: human dermal fibroblasts; peptide 0.5%, 1% and/or 3% (stock solution 40 mg/kg); 24, 48 and/or 72 hours; vs control
Procedure: as §1, §2

hyaluronic acid [4] = assay: Specific labeling of hyaluronic acid in human fibroblast cultures (epifluorescence); details: human dermal fibroblasts; peptide 0.5%, 1% and/or 3% (stock solution 40 mg/kg); 24, 48 and/or 72 hours; vs control
Procedure: as §1, §2

collagen III [5] = assay: Collagen III immunolabeling in human skin samples cultivated ex vivo; details: topical 0.5%, 1% or 3% (stock solution 40 mg/kg), 24, 48 and/or 72 hours
Procedure: (§3) The objective of this study is to determine the influence of the peptide SEQ ID NO: 5 on the expression of the following extracellular matrix proteins: collagen I, collagen III, pro-collagen, fibronectin and hyaluronic acid in the human skin. For this, specific labelings were performed on human skin samples cultivated ex vivo.
(§4) Human skin samples are placed in culture at the air/liquid interface. The peptide SEQ ID NO: 5 is applied topically on the samples at final concentrations of 0.5%, 1% or 3%, (using a stock solution at 40 mg/kg) then the samples are incubated for 24, 48 and/or 72 hours at 37° C.
(§5) These skin samples are then fixed with formaldehyde then embedded in paraffin or fixed and embedded in OCT then frozen at −20° C. Sections with a thickness of 4 μm are then produced (6 μm for cold sections).
(§6) The labelings of the collagen I and the collagen III, on the samples embedded in paraffin, are performed after unmasking specific sites. The immunolabelings are performed using a specific rabbit collagen I polyclonal antibody (Rockland, Ref: 600-401-103-0.5), a specific rabbit collagen III polyclonal antibody (Rockland, Ref: 600-401-105-0.5), then an anti-rabbit secondary antibody coupled with a fluorochrome (Invitrogen, Ref: A21206). […]

[6] = tested on: Collagen I messenger RNAs; assay: Expression of collagen I messenger RNAs by real-time PCR in human fibroblasts; details: 0.5% and 1% (stock solution 40 mg/kg), 24, 48 and 72 hours, comparative Ct method, 18S control
Procedure: The objective of this study is to determine the influence of the peptide SEQ ID NO: 5 on the expression of collagen I messenger RNAs in the human fibroblasts. For this, the expression of collagen I was studied by real-time PCR.
Human fibroblasts in culture are treated with the peptide SEQ ID NO: 5 at final concentrations of 0.5% and 1% (using a stock solution at 40 mg/kg) for 24, 48 and 72 hours. The total RNAs are extracted using an extraction kit (QIAGEN), then reverse transcribed with a specific kit containing RNase inhibitors (Applied Biosystems). A real-time PCR is performed in a thermocycler using a specific Collagen I TaqMan Gene Expression Assay (Applied Biosystem, […]) and a specific 18S TaqMan Gene Expression Assay used as an endogenous control (Applied Biosystem, […]). The relative quantification of the expression of the Collagen I messenger RNAs is performed by the comparative Ct method (the Ct, the threshold cycle, is the intersection between the amplification curve and the threshold line).

collagen I [7] = assay: Collagen I immunolabeling in human skin samples cultivated ex vivo; details: topical 0.5%, 1% or 3% (stock solution 40 mg/kg), 24, 48 and/or 72 hours
Procedure: as §3, §4, §5, §6

[8] = tested on: senescent fibroblasts (β-galactosidase activity); assay: Reversal of senescence induced by FOXO3a siRNA in human fibroblasts (β-galactosidase, X-Gal staining); details: human fibroblasts treated with FOXO3a siRNA 25 nM; peptide 1% (stock solution 40 mg/kg); 48 hours
Source text: The objective of this study is to determine the influence of the peptide SEQ ID NO: 5 on senescent fibroblasts, of which the senescence has been induced by the extinction of the FOXO3a gene. These cells overexpress beta-galactosidase, in relation to their senescent state.
FOXO3a is a Forkhead transcription factor involved in cell longevity. In the skin, the negative regulation of FOXO3a accelerates the senescence of normal human fibroblasts (Hyun Kyoung K. et al. J. of Gerontol., 2005, vol. 60A n° 1, pages 4-9). This property was used to advantage to induce senescence in human fibroblasts by blocking FOXO3a expression by a specific interfering RNA (siRNA).
Human fibroblasts in culture are rendered senescent by treatment with a specific siRNA of FOXO3a at a final concentration of 25 nM using the Lipofectamine™ RNAiMAX (Invitrogen, Ref: 13778-075) transfection technique. Untreated controls are produced. The fibroblasts are treated in parallel by the peptide SEQ ID NO: 5 at a final concentration of 1% (using a stock solution at 40 mg/kg) for 48 hours.
The cells are rinsed and fixed in a fixation buffer (0.2% glutaraldehyde, 2% formaldehyde). The cells are then incubated at 37° C. without CO2 for 24 hours with an X-Gal solution at 1 mg/mL in 40 mM of citric acid/phosphate (pH 6), 5 mM K3FeCN6, 5 mM K4FeCN6, 150 mM NaCl and 2 mM MgCl2. […]

hyaluronic acid [9] = assay: Hyaluronic acid labeling in human skin samples cultivated ex vivo; details: topical 0.5%, 1% or 3% (stock solution 40 mg/kg), 24, 48 and/or 72 hours
Procedure: as §3, §4, §5, §6

pro-collagen [10] = assay: Pro-collagen immunolabeling in human skin samples cultivated ex vivo; details: topical 0.5%, 1% or 3% (stock solution 40 mg/kg), 24, 48 and/or 72 hours
Procedure: as §3, §4, §5
The immunolabeling of the pro-collagen, on the samples embedded in OCT, is performed after fixing for 10 minutes with cold acetone. The immunolabeling is performed using a specific rat pro-collagen polyclonal antibody (Millipore, Ref: MAB 1912) then an anti-rat secondary antibody, coupled with a fluorescent marker (Invitrogen, A11006).
The cells are then examined under the epifluorescence microscope (Nikon Eclipse E600 microscope).

P16 = assay: Expression of senescence marker P16 in human fibroblasts (immunolabeling); details: 0.5% and 1% (stock solution 40 mg/kg), 48 hours
Procedure: The objective of this study is to determine the influence of the peptide SEQ ID NO: 5 on the expression of P16, a protein of which the expression in the skin increases with age. P16 is a protein involved in the negative regulation of the cellular cycle, which has been described as a reliable marker of cellular senescence (Brookes S. et al. Experimental Cell Research 298, 2004).
Human fibroblasts in culture are treated with the peptide SEQ ID NO: 5 at final concentrations of 0.5% and 1% (using a stock solution at 40 mg/kg) for 48 hours. The cells are prepared according to the Shandon Cytoblock® Cell preparation system kit (Thermo Scientific, Ref: 7401150).
The cells are then fixed with formaldehyde then embedded in paraffin. Sections of 4 μm are then produced. The labeling of p16 on the cells embedded in paraffin is performed after unmasking the specific sites. The immunolabelings are performed using a specific mouse p16 polyclonal antibody (Santa-Cruz, Ref: sc-81157), then an anti-mouse secondary antibody coupled with a fluorochrome (Invitrogen, Ref: A21202). The cells are then examined under the epifluorescence microscope (Nikon Eclipse E600 microscope).

Substance	expression of pro-collagen (pro-collagen [1])	expression of fibronectin (fibronectin)	expression of collagen III (collagen III [2])	expression of collagen I (collagen I [3])	expression of hyaluronic acid (hyaluronic acid [4])	expression of collagen III in the dermis (collagen III [5])	expression of Collagen I messenger RNAs [6]	expression of collagen I in the dermis (collagen I [7])	β-galactosidase activity (number of cells stained blue) [8]	expression of hyaluronic acid in the human dermis (hyaluronic acid [9]; dermis)	expression of hyaluronic acid in the human epidermis (hyaluronic acid [9]; epidermis)	expression of pro-collagen in the dermis (pro-collagen [10])	p16 immunolabeling, nuclear fluorescence (expression of the p16 senescence marker) (P16)
Gly-Pro-Ala-Gly-Pro (GPAGP) [SEQ ID NO: 4]	stimulate the expression	stimulate the expression	stimulate the expression	stimulate the expression	stimulate the expression	–	–	–	–	–	–	–	–
Gly-Pro-Ala-Gly-Pro-NH2 (GPAGP-NH2) [SEQ ID NO: 5]	stimulate the expression	stimulate the expression	stimulate the expression	stimulate the expression	stimulate the expression	stimulates the expression	stimulates the expression	stimulates the expression	decrease in the β-galactosidase activity	stimulates the expression	stimulates the expression	stimulates the expression	less intense nuclear fluorescence
